# Measurements reported in patent publication US10653666B1, “Cardioprotective nano-pharmaceutical formulation” (King Abdulaziz University, priority 2020, dated 2020).
# Key:
# Type in all cases: in vivo, rat
# [1] = test system: MetS animals (high-fructose high-salt diet); experiment: Blood pressure in metabolic syndrome rats; conditions: oral 25 mg/kg/day in the last 6 weeks, vs MetS, p<0.05
# Protocol: (§1) Rats used in this study were male Wistar 6-8 weeks old rats weighing 180-200 g (King Fand Medical Research Center, King Abdulaziz University, Jeddah, Saudi Arabia). Clear polypropylene cages were used to house 4 rats each and included access to purified water and standard rodent pellets. Constant animal housing conditions applied constituting of alternating 12 hours light and dark, a temperature of 22±3° C., a relative humidity of 50-60% and adequate ventilation. Experimental protocol was approved by the Research Ethical Committee, Faculty of Pharmacy, King Abdulaziz University, Jeddah, Saudi Arabia and was conducted in accordance with the Saudi Arabia Research Bioethics and Regulations.
# Animals were randomly divided into 5 experimental groups; Control (C) rats received regular tap water and food pellets. MetS group (M) in which fructose (10%) was added to drinking water and NaCl (3%) to food pellets. […]
# Invasive real-time recording of cardiac contractility was carried out according to the method described in previous publication from our laboratories (El-Bassossy et al., 2017). After urethane anaethesia, animals were placed on controlled heating pads, and body temperature, measured via a rectal probe, was maintained at 37° C. […] After stabilization for 5 min, the signals were continuously recorded at a sampling rate of 1000 s−1. […]
# [2] = test system: MetS animals (high-fructose high-salt diet); experiment: Invasive real-time cardiac contractility recording in metabolic syndrome rats; conditions: vs MetS; for Cardiac contractility (contractility index): oral 25 mg/kg/day in the last 6 weeks of 12 weeks diet
# Protocol: as §1
# Animals were randomly divided into 5 experimental groups; Control (C) rats received regular tap water and food pellets. MetS group (M) in which fructose (10%) was added to drinking water and NaCl (3%) to food pellets. This regimen began in 6-week old rats and continued for 12 weeks. Standard quercetin group (MQ) administered 25 mg/kg quercetin suspension every day in the last 6 weeks of fructose and salt administration. Nano formula vehicle group (MN) received the same volumes of SNEDDS ingredients (Pumpkin seed oil, D-α-tocopheryl polyethylene glycol succinate (TPGS) and PEG 200) without quercetin every day in the last 6 weeks of fructose and salt administration. The nanoformula group (MNQ) administered 25 mg/kg of quercetin in the form of nano-pharmaceutical formulation every day in the last 6 weeks of fructose and salt administration.
# Invasive real-time recording of cardiac contractility was carried out according to the method described in previous publication from our laboratories (El-Bassossy et al., 2017). After urethane anaethesia, animals were placed on controlled heating pads, and body temperature, measured via a rectal probe, was maintained at 37° C. A microtip pressure transducer (SPR-320; Millar Instruments, Houston, Tex., USA) was inserted into the right carotid artery and advanced into the left ventricle under pressure control. After stabilization for 5 min, the signals were continuously recorded at a sampling rate of 1000 s−1. The microtip catheter was connected to a PowerLab Data Interface Module connected to a PC running LabChart professional software (version 7.3; ADI Instruments, Bella Vista, Australia) containing a blood pressure module.
# [3] = test system: MetS animals (high-fructose high-salt diet); experiment: Overall protection from cardiovascular complication of metabolic syndrome in rats; conditions: oral 25 mg/kg/day in the last 6 weeks
# Protocol: Rats used in this study were male Wistar 6-8 weeks old rats weighing 180-200 g (King Fand Medical Research Center, King Abdulaziz University, Jeddah, Saudi Arabia). Clear polypropylene cages were used to house 4 rats each and included access to purified water and standard rodent pellets. Constant animal housing conditions applied constituting of alternating 12 hours light and dark, a temperature of 22±3° C., a relative humidity of 50-60% and adequate ventilation. Experimental protocol was approved by the Research Ethical Committee, Faculty of Pharmacy, King Abdulaziz University, Jeddah, Saudi Arabia and was conducted in accordance with the Saudi Arabia Research Bioethics and Regulations. Animals were randomly divided into 5 experimental groups; Control (C) rats received regular tap water and food pellets. MetS group (M) in which fructose (10%) was added to drinking water and NaCl (3%) to food pellets. This regimen began in 6-week old rats and continued for 12 weeks. Standard quercetin group (MQ) administered 25 mg/kg quercetin suspension every day in the last 6 weeks of fructose and salt administration. Nano formula vehicle group (MN) received the same volumes of SNEDDS ingredients (Pumpkin seed oil, D-α-tocopheryl polyethylene glycol succinate (TPGS) and PEG 200) without quercetin every day in the last 6 weeks of fructose and salt administration. […]
# [4] = test system: MetS animals (high-fructose high-salt diet); experiment: Cardiac conductivity (surface ECG) recording in metabolic syndrome rats; conditions: oral 25 mg/kg/day in the last 6 weeks, vs MetS, p<0.05
# Protocol: Rats used in this study were male Wistar 6-8 weeks old rats weighing 180-200 g (King Fand Medical Research Center, King Abdulaziz University, Jeddah, Saudi Arabia). Clear polypropylene cages were used to house 4 rats each and included access to purified water and standard rodent pellets. Constant animal housing conditions applied constituting of alternating 12 hours light and dark, a temperature of 22±3° C., a relative humidity of 50-60% and adequate ventilation. Experimental protocol was approved by the Research Ethical Committee, Faculty of Pharmacy, King Abdulaziz University, Jeddah, Saudi Arabia and was conducted in accordance with the Saudi Arabia Research Bioethics and Regulations. Animals were randomly divided into 5 experimental groups; Control (C) rats received regular tap water and food pellets. MetS group (M) in which fructose (10%) was added to drinking water and NaCl (3%) to food pellets. This regimen began in 6-week old rats and continued for 12 weeks. Standard quercetin group (MQ) administered 25 mg/kg quercetin suspension every day in the last 6 weeks of fructose and salt administration. […] The standard limb lead II of the surface ECG was recorded by the Powerlab system (ADI Instruments) connected to a PC running LabChart professional software (version 7.3) containing an ECG module, which detects different components of the ECG. […]
# [5] = oral 25 mg/kg/day in the last 6 weeks, p<0.05
structure (smiles),measurement,setting,value
"O=c1c(O)c(-c2ccc(O)c(O)c2)oc2cc(O)cc(O)c12 [regular size quercetin, quercetin]",Diastolic blood pressure (DBP),[1],partially reduced
same,Systolic blood pressure (SBP),[1],partially reduced
same,Cardiac contractility (contractility index),"[2]; p<0.05, 25 mg/kg/day",did not significantly affect
same,Cardiac contractility (contractility index),"[2]; p<0.05, listed as suspension of quercetin, 25 mg/kg/day",failed to affect
same,"Diastolic function (−dP/dt, dp/dt min)",[2]; [5],did not significantly affect
same,Left ventricular systolic function (dP/dt max),[2]; [5],did not significantly affect
same,Cardiovascular function / cardioprotective effect (overall),[3],failed to completely protect
same,JT interval,[4],did not significantly improve
same,QTc interval,[4],did not significantly improve
